Experimental data from ChEMBL document CHEMBL3044752, “Isobutyl amides--potent compounds for controlling Diatraea saccharalis” (2009).

System: Diatraea saccharalis
Experiment: Insecticidal activity against fourth-instar Diatraea saccharalis assessed as larval mortality measured per insect after 24 hr exposure
Assay type: functional

SMILES | LD50 | LD90
CC(C)CNC(=O)/C=C/CCc1ccc2c(c1)OCO2 [4,5-DIHYDROPIPERLONGUMININE] | 92.83 µg | 176.5 µg
CCCCC/C=C/C=C/C(=O)NCC(C)C [PELLITORIN] | 91.19 µg | 184.56 µg
